Laboratory results as given in patent US11224223B2, “Feeding deterrence of pests such as Hemiptera, Lepidoptera and Coleoptera” (BEDOUKIAN RESEARCH, INC., priority 2012, dated 2022).

Experiments:
Format in all cases: in vivo
[1] = system: Leptinotarsa decemlineata-Colorado Potatoe Beetles; test: Choice feeding assay on potato leaf disks; details: 3% compound, larvae, 24 h
Aphis gossypii = test: Melon aphid repellency on leaf choice assays; details: 3% compound in a Triton X:Water solution; n=100; control 50/50
Popillia japonica = test: Japanese beetle feeding damage on basil; details: 3% compound; basil leaf disks; adult beetle; 24 h
Codling Moth larvae = test: Repellency as feeding deterrence and mortality in Codling Moth larvae on treated media; details: compound at 3.5% in a 57% Ethanol:43% water solution; for Repellency at 24 hours: first instar larva, control 8%
Description: Another test was designed to measure the repellency as feeding deterrence in Codling Moth larvae. The treatment was applied to the surface of a proprietary laboratory media in a tray with wells for each compound. The media was allowed to dry for 30-60 minutes so that larvae were not exposed to it as a liquid. One first instar codling moth larva was then placed on the treated media. The cover film was placed on the tray to prevent escapes. Ten additional replicates treated with a 57% ethanol solution were prepared to serve as controls. […] After the 24 hour reading, the larvae were extracted from the media to record any mortality.
Mortality observations were also made for the above protocol. The control was the 57% ethanol:43% water solution.

sharpshooters = test: Leafhopper repellency on citrus choice assays; details: 3% compound; citrus seedlings; 100 sharpshooters per cage; control 50/50
Dermestid spp. = test: Dermestid beetle feeding damage on silk fabric; details: 3% compound; undyed silk disks; late instar larvae; 1 week
Tineola spp. = test: Clothes moth feeding damage on silk fabric, choice test; details: 3% compound; silk disks; late instar larvae; 24 hours; control 50/50
Plodia interpunctella = test: Feeding repellent assay for Indian meal moth larva on treated rice; details: 10% compound in a 5% Ethanol:95% water solution, third instar larvae, 1 week
Sitostroga cerealella = test: Feeding repellent assay for Angoumois larva on treated rice; details: 10% compound in a 5% Ethanol:95% water solution, third instar larvae, 1 week

| SMILES | % Repellency [1] | Number of Aphids Choosing each Treatment: Treated (Aphis gossypii) | Number of Aphids Choosing each Treatment: Untreated (Aphis gossypii) | % Repellency (Popillia japonica) | Increased Mortality over Control Mortality at 24 hours (Codling Moth larvae) | Repellency at 24 hours (Codling Moth larvae) | Number of Psyllids Choosing each Treatment: Treated (sharpshooters) | Number of Psyllids Choosing each Treatment: Untreated (sharpshooters) | % Repellency (Dermestid spp.) | Individuals choosing to feed on each disk: Treated (Tineola spp.) | Individuals choosing to feed on each disk: Untreated (Tineola spp.) | % Antifeedent Activity (Plodia interpunctella) | % Antifeedent Activity (Sitostroga cerealella) |
| --- | --- | --- | --- | --- | --- | --- | --- | --- | --- | --- | --- | --- | --- |
| CC/C(C)=C/CC/C(C)=C/CC1CCCC1=O (centres unmarked) [Methyl Apritone] | 15% | 30 | 70 | 15% | 95% | 100% | 30 | 70 | 15% | 20 | 80 | 70% | 70% |
| CCCCCC1C(=O)CCC1CC(=O)OCCC (centres unmarked) [Propyl Dihydrojasmonate] | 15% | 30 | 70 | 15% | 18% | 59% | 30 | 70 | 15% | 20 | 80 | 60% | 60% |
